According to patent US8088758B2, “17β-hydroxysteroid dehydrogenase type I inhibitors” (Abbott Products GmbH, priority 2003, dated 2012):

Biological target: T1, recombinant human 17β-hydroxysteroid dehydrogenase type 1 (Homo sapiens, UniProt P14061)
T1 construct: made in house; host or cells: Sf9 insect cells (baculovirus, Bac to Bac Expression System)
T1 sequence (P14061 1-328): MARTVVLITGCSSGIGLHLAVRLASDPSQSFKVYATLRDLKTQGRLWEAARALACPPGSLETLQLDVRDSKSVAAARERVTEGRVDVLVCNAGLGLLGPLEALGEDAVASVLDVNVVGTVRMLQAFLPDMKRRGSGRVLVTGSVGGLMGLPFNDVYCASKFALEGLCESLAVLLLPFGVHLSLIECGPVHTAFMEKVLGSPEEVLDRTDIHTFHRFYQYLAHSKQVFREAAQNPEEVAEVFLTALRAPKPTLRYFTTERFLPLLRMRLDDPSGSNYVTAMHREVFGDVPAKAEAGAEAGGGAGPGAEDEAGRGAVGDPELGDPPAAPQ
Test: Inhibition of recombinant human 17β-hydroxysteroid dehydrogenase type 1 (conversion of 3H-estrone to estradiol, HPLC)
Format: biochemical
Details: 30 nM 3H-estrone, 1 mM NADPH, 30 min at RT; for inhibition at 0.1 µM: inhibitor 100 nM, read-out: Inhibition of rec. 17β-HSD1 (% inhibition), 100 nM; for inhibition at 1 µM: inhibitor 1 μm, read-out: Inhibition of rec. 17β-HSD1 (% inhibition), 1 μm
Description: 1. Inhibition of the 17β-hydroxysteroid Dehydrogenase Type 1 Enzyme
17β-HSD1 Purification: Recombinant baculovirus was generated by the “Bac to Bac Expression System” (Invitrogen). Recombinant bacmid was transfected to Sf9 insect cells using “Cellfectin Reagent” (Invitrogen). 60 h later cells were harvested; the microsomal fraction was isolated as described by Puranen et al. 1994. Aliquots were stored frozen until determination of enzymatic activity.
Assay—Inhibition of Recombinant Human 17β-hydroxysteroid Dehydrogenase Type 1:
Recombinant protein (0.1 μg/ml) was incubated in 20 mM KH2PO4 pH 7.4 with 30 nM 3H-estrone and 1 mM NADPH for 30 min at RT, in the presence of potential inhibitors at concentrations of 1 μM or 0.1 μM. Inhibitor stock solutions were prepared in DMSO. Final concentration of DMSO was adjusted to 1% in all samples. The enzyme reaction was stopped by addition of 10% trichloroacetic acid (final concentration). Samples were centrifuged in a microtiter plate at 4000 rpm for 10 min. Supernatants were applied to reverse phase HPLC on a Waters Symmetry C18 column, equipped with a Waters Sentry Guard column. Isocratic HPLC runs were performed at RT at a flow rate of 1 ml/min of acetonitrile:water 48:52 as running solvent. Radioactivity was monitored in the eluate by a Packard Flow Scintillation Analyzer. Total radioactivity for estrone and estradiol were determined in each sample and percent conversion of estrone to estradiol was calculated according to the following formula:
Percent inhibition was calculated as follows: % inhibition=100−% conversion

SMILES	inhibition at 0.1 µM [%]	inhibition at 1 µM [%]
COc1ccc2c(c1)CC[C@H]1[C@@H]3[C@H](CCCCC(=O)NCc4cccc(F)c4)CC(=O)[C@@]3(C)CC[C@H]21 [Example 342]	40.4	89.2
COc1ccc2c(c1)CC[C@H]1[C@@H]3[C@H](CCCC(=O)NCc4ccco4)CC(=O)[C@@]3(C)CC[C@H]21 [Example 7]	28.7	63.4
COc1ccc2c(c1)CC[C@H]1[C@@H]3[C@H](CCCCCC(=O)NC4CCCCC4)CC(=O)[C@@]3(C)CC[C@H]21 [Example 348]	30.5	82.4
C[C@]12CC[C@@H]3c4ccc(O)cc4CC[C@H]3[C@@H]1[C@@H](CNS(=O)(=O)c1cccs1)CC2=O [Example 662]	76.9	94.8
C[C@]12CC[C@@H]3c4ccc(O)cc4CC[C@H]3[C@@H]1[C@@H](CCCCNC(=O)NCC1CCCCC1)CC2=O [Example 491]	56.9	83
CCCCNC(=O)CCCCC[C@@H]1CC(=O)[C@@]2(C)CC[C@@H]3c4ccc(OC)cc4CC[C@H]3[C@H]12 [Example 365]	33.7	86.4
COc1ccc2c(c1)CC[C@H]1[C@@H]3[C@H](CCCCC(=O)NCc4ccncc4)CC(=O)[C@@]3(C)CC[C@H]21 [Example 339]	25.9	82.9
COc1ccc2c(c1)CCC1C2CC[C@]2(C)C(=O)C[C@@H](CCCC(=O)NCCc3ccc(O)cc3)C12 (stereo partly drawn) [Example 22]	27.3	57.8
COc1ccc2c(c1)CC[C@H]1[C@@H]3[C@H](CCCCNC(=O)NCc4ccccc4)CC(=O)[C@@]3(C)CC[C@H]21 [Example 477]	31.7	79.5
C[C@]12CC[C@@H]3c4ccc(O)cc4CC[C@H]3[C@@H]1[C@@H](CNS(=O)(=O)c1ccc3ccccc3c1)CC2=O [Example 661]	40.1	82
CCOC(=O)CNNC(=O)CCCCC[C@@H]1CC(=O)[C@@]2(C)CC[C@@H]3c4ccc(OC)cc4CC[C@H]3[C@H]12 [Example 414]	44.9	49.9
COc1ccc2c(c1)CC[C@H]1[C@@H]3[C@H](CCCCCC(=O)NCc4ccc5c(c4)OCO5)CC(=O)[C@@]3(C)CC[C@H]21 [Example 353]	46.3	89.5
COc1ccc2c(c1)CC[C@H]1[C@@H]3[C@H](CCC(=O)N4CCOCC4)CC(=O)[C@@]3(C)CC[C@H]21 [Example 316]	25.3	74.5
COc1ccc2c(c1)CC[C@H]1[C@@H]3[C@H](CCCCC(=O)N(C)Cc4ccccc4)CC(=O)[C@@]3(C)CC[C@H]21 [Example 344]	39.8	88.9
COc1ccc(S(=O)(=O)NC[C@H]2CC(=O)[C@@]3(C)CC[C@@H]4c5ccc(O)cc5CC[C@H]4[C@H]23)cc1 [Example 668]	52.4	88.3
COc1ccc(S(=O)(=O)N(C)C[C@H]2CC(=O)[C@@]3(C)CC[C@@H]4c5ccc(O)cc5CC[C@H]4[C@H]23)cc1 [Example 688]	47.4	91.3
COc1ccc2c(c1)CC[C@H]1[C@@H]3[C@H](CCCC(=O)NCc4ccccc4)CC(=O)[C@@]3(C)CC[C@H]21 [Example 3B, N-Benzyl-4-(3-methoxy-17-oxo-estra-1,3,5(10)-trien-15β-yl)-butyramide]	77.4	82.1

SMILES	inhibition at 0.1 µM [%]	inhibition at 1 µM [%]
COc1ccc2c(c1)CC[C@H]1[C@@H]3[C@H](CCCCOC(=O)Nc4cccc([N+](=O)[O-])c4)CC(=O)[C@@]3(C)CC[C@H]21 [Example 754]	29.3	65.1
CN(Cc1ccccc1)C(=O)CCC[C@@H]1CC(=O)[C@@]2(C)CC[C@@H]3c4ccc(O)cc4CC[C@H]3[C@H]12 [Example 38, N-Benzyl-4-(3-hydroxy-17-oxo-estra-1,3,5(10)-trien-15β-yl)-N-methyl-butyramide]	60.5	89.5
CN(C[C@H]1CC(=O)[C@@]2(C)CC[C@@H]3c4ccc(O)cc4CC[C@H]3[C@H]12)S(=O)(=O)c1cccs1 [Example 682]	49.2	91.8
COc1ccc2c(c1)CC[C@H]1[C@@H]3[C@H](CCCCCC(=O)N(C)Cc4ccccc4)CC(=O)[C@@]3(C)CC[C@H]21 [Example 364]	48.7	90.8
COc1ccc2c(c1)CC[C@H]1[C@@H]3[C@H](CCC(=O)NC4CCCCC4)CC(=O)[C@@]3(C)CC[C@H]21 [Example 310]	67.9	91.7
CNC(=O)CCC[C@@H]1CC(=O)[C@@]2(C)CC[C@@H]3c4ccc(OC)cc4CC[C@H]3[C@H]12 [Example 4B, 4-(3-Methoxy-17-oxo-estra-1,3,5(10)-trien-15β-yl)-N-methyl-butyramide]	30.5	60.8
COc1ccc2c(c1)CC[C@H]1[C@@H]3[C@H](CCCOC(=O)Nc4ccc5c(c4)OCO5)CC(=O)[C@@]3(C)CC[C@H]21 [Example 748]	48.7	90.6
COc1ccc2c(c1)CC[C@H]1[C@@H]3[C@H](CCC(=O)Nc4ncc(C)s4)CC(=O)[C@@]3(C)CC[C@H]21 [Example 329]	78.9	96.2
COc1ccc2c(c1)CC[C@H]1[C@@H]3[C@H](CCCCC(=O)NC4CCCCC4)CC(=O)[C@@]3(C)CC[C@H]21 [Example 331]	37	88
COc1ccc2c(c1)CC[C@H]1[C@@H]3[C@H](CCCNC(=O)Nc4ccc5ccccc5c4)CC(=O)[C@@]3(C)CC[C@H]21 [Example 460]	50.1	77.2
COc1ccc2c(c1)CC[C@H]1[C@@H]3[C@H](CCCCC(=O)NCc4cccnc4)CC(=O)[C@@]3(C)CC[C@H]21 [Example 338]	28.7	84.6
COc1ccc2c(c1)CC[C@H]1[C@@H]3[C@H](CCCNC(=O)NCc4ccccc4)CC(=O)[C@@]3(C)CC[C@H]21 [Example 452]	38.6	82.9
COc1ccc2c(c1)CC[C@H]1[C@@H]3[C@H](CCCOC(=O)Nc4ccc(Cl)cc4Cl)CC(=O)[C@@]3(C)CC[C@H]21 [Example 744]	37.1	53.9
COc1ccc2c(c1)CC[C@H]1[C@@H]3[C@H](CCCCC(=O)NCc4ccc5c(c4)OCO5)CC(=O)[C@@]3(C)CC[C@H]21 [Example 335]	59	90.5
COc1ccc2c(c1)CCC1C2CC[C@]2(C)C(=O)C[C@H](C(=O)NCc3nc4ccccc4[nH]3)C12 (stereo partly drawn) [Example 58]	25	65.3
COc1ccc2c(c1)CC[C@H]1[C@@H]3[C@H](CCCCC(=O)NCc4ccccc4OC)CC(=O)[C@@]3(C)CC[C@H]21 [Example 341]	38.1	88
